# In patent US20190002825A1, “Method for Inducing Targeted Differentiation of Human Stem Cells Toward Hepatic Cells” (TRANSCEND CYTOTHERAPY CO., LTD, priority 2015, published 2019):
# Legend:
# [1] = in vivo; cited from earlier work
# [2] = in vivo; cited from earlier work; remark: listed apart in the source
# [3] = tested on: Wnt signaling pathway; conditions: cited from earlier work
# [4] = tested on: CDC2, ERK2 and other kinases; conditions: cited from earlier work
# [5] = tested on: BMP type II receptors; conditions: cited from earlier work
# [6] = tested on: activin type II receptors; conditions: cited from earlier work
# [7] = target: TGF-β type II receptors (Homo sapiens, UniProt P37173); conditions: cited from earlier work
# [8] = target: TGF-β receptor type II (TβRII) (Homo sapiens, UniProt P37173); conditions: cell-free assays; cited from earlier work
# [9] = target: ROCK1 (Homo sapiens, UniProt Q13464); conditions: cited from earlier work
# [10] = target: T1, ALK4 (Homo sapiens, UniProt P36896); conditions: cited from earlier work
# T1 sequence (P36896 24-505): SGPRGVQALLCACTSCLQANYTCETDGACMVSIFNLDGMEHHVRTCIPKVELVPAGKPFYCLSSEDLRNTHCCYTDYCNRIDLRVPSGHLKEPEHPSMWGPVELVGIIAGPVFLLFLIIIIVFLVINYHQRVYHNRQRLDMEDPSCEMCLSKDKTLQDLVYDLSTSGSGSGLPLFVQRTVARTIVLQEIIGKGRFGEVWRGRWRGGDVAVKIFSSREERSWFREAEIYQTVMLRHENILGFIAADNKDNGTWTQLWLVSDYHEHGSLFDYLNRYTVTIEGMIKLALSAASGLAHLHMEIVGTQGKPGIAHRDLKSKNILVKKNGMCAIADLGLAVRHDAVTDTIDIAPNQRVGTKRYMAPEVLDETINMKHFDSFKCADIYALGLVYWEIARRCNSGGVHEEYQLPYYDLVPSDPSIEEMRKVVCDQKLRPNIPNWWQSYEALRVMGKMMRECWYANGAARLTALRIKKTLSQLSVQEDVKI
# [11] = tested on: ALK1, ALK2, ALK3 or ALK6; conditions: cited from earlier work
# [12] = target: T2, ALK7 (Homo sapiens, UniProt Q8NER5); conditions: in words; cited from earlier work
# T2 sequence (Q8NER5 21-493): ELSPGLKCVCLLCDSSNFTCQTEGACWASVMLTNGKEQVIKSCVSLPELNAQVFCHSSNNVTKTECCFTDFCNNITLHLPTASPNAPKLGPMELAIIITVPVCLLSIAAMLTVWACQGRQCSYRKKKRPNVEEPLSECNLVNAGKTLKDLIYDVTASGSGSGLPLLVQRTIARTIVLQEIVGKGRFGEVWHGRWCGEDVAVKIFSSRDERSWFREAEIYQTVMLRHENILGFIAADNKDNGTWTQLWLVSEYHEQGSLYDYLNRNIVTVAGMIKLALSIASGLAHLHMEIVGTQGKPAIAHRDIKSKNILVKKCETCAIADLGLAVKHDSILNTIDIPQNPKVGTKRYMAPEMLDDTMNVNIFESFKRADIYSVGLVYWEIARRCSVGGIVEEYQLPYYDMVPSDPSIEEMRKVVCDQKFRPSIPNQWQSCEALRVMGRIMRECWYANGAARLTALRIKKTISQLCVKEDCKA
# [13] = tested on: ALK2, ALK3 and ALK6; conditions: cited from earlier work
# [14] = tested on: p38, MAPK and other kinases; conditions: cited from earlier work
# [15] = target: GSK-3β (Homo sapiens, UniProt P49841); conditions: cited from earlier work
# [16] = tested on: human embryonic stem cells (hESCs); conditions: cited from earlier work
# [17] = tested on: ROCK; conditions: cell-free assays; cited from earlier work
# [18] = tested on: PKC, cAMP-dependent protein kinases, MLCK and PAK; conditions: cited from earlier work
# [19] = tested on: CYP1A2; format: cell-based, human
# [20] = target: GSK-3α (Homo sapiens, UniProt P49840); conditions: cited from earlier work
# [21] = target: TGF-βRII (Homo sapiens, UniProt P37173); conditions: cited from earlier work
# Chain of TGF-βRII (P37173 23-567): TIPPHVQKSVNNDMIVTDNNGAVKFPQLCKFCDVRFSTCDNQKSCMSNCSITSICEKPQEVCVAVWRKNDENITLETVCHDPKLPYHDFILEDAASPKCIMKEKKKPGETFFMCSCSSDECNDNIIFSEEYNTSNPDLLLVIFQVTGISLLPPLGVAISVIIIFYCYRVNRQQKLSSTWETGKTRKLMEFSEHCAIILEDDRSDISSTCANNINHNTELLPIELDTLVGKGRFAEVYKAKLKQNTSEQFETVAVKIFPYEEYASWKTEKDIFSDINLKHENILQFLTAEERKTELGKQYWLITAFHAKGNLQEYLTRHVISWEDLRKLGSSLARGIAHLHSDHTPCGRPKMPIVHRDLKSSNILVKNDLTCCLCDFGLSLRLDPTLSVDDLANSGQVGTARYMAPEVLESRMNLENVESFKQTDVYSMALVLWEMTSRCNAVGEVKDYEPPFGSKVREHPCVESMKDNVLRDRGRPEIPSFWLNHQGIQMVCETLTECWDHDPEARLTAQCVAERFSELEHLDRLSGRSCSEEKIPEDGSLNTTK
# Chain of TGF-β type II receptors (P37173 23-567): as above
# Chain of TGF-β receptor type II (TβRII) (P37173 23-567): as above
# Chain of GSK-3β (P49841 whole entry): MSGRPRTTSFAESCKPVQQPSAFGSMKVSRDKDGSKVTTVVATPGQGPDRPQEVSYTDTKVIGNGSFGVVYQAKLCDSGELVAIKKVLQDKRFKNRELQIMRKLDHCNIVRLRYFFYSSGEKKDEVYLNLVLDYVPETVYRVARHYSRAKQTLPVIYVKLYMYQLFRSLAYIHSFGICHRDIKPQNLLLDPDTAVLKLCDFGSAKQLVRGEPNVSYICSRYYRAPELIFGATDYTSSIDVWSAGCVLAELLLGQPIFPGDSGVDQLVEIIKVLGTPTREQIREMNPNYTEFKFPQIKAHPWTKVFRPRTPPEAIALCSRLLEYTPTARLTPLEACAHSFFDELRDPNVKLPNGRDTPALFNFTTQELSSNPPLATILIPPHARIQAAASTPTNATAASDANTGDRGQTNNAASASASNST
# Chain of GSK-3α (P49840 whole entry, species assumed): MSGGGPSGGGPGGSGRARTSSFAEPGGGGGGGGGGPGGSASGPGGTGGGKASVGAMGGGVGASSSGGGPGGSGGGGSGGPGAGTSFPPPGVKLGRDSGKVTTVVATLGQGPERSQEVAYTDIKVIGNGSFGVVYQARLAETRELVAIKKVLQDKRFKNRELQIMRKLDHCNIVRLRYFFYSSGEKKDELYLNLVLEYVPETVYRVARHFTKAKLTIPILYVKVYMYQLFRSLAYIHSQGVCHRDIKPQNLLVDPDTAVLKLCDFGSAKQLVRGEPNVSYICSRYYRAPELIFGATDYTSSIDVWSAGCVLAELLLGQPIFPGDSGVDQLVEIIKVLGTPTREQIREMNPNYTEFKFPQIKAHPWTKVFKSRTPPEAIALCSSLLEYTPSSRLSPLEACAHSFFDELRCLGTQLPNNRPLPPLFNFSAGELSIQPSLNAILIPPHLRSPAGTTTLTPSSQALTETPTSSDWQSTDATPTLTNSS
# Chain of ROCK1 (Q13464 whole entry): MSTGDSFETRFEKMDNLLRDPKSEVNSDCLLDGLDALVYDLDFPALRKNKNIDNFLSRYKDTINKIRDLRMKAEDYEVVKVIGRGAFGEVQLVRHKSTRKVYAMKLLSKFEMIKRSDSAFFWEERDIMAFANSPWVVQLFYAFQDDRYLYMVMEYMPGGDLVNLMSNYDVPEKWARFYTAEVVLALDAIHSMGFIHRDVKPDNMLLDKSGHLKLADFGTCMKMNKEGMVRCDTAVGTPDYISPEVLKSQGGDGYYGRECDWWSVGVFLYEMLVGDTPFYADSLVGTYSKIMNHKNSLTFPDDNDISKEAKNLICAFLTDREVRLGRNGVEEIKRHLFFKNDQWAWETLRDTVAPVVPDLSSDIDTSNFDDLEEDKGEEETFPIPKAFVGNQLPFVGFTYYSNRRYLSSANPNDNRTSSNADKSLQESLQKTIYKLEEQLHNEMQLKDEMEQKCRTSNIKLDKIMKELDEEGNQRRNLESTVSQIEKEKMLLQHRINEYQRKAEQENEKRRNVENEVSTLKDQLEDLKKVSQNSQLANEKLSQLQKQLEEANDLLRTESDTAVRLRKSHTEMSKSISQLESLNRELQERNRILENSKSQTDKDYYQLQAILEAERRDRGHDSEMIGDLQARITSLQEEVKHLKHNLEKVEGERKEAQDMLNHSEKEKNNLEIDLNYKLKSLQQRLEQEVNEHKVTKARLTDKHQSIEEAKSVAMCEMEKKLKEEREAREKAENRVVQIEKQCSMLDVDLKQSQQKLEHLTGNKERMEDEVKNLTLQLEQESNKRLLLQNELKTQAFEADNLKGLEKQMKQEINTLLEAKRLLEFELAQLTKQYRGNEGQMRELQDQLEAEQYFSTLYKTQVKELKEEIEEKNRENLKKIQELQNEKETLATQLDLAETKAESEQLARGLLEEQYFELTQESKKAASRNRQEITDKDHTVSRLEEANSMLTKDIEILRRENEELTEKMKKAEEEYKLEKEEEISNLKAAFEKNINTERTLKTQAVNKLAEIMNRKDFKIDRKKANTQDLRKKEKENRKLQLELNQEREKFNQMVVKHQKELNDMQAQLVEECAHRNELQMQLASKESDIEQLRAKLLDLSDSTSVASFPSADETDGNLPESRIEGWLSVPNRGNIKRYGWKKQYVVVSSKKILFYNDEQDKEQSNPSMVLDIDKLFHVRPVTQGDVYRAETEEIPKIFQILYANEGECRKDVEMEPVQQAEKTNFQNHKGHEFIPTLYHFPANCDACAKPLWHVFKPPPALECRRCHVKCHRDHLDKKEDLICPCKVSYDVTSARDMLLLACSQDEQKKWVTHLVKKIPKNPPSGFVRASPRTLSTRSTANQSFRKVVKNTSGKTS
molecule,measurement,setting,value
N#Cc1ccc2[nH]c(O)c(-c3ccc(CN4CCOCC4)cn3)c2c1 [AZD1080],permeability to the brain,[1],permeable to the brain
same,oral bioavailability,[2],orally bioavailable
CN1CCN(S(=O)(=O)c2ccc(-c3cnc(N)c(C(=O)Nc4cccnc4)n3)cc2)CC1 [AZD2858],effect on the Wnt signaling pathway,[3],enhances
Cc1cnc(-c2cnc(NCCNc3ccc(C#N)cn3)nc2-c2ccc(Cl)cc2Cl)[nH]1 [CHIR-99021],"times more inhibitory on GSK-3α and GSK-3β than on CDC2, ERK2 and other kinases",[4],500 times
Cc1cccc(-c2[nH]c(CNc3ccccc3F)nc2-c2ccc3ncnn3c2)n1 [EW-7197],oral bioavailability,[2],orally bioavailable
O=C(NC1CCOCC1)c1ccc(-c2cc(-c3c[nH]nc3-c3ccccn3)ccn2)cc1 [GW788388],inhibition of the activity of BMP type II receptors,[5],does not inhibit
same,inhibition of the activity of activin type II receptors,[6],inhibits
same,inhibition of the activity of TGF-β type II receptors,[7],inhibits
c1ccc(-c2nn3c(c2-c2ccnc4cc(OCCN5CCOCC5)ccc24)CCC3)nc1 [LY2109761],Ki,[8],300 nM
O=C(NCc1cccc(O)c1)Nc1nc(-c2ccncc2)cs1 [RKI-1447],IC50,[9],14.5 nM
Cc1cccc(-c2[nH]c(C(C)(C)C)nc2-c2ccc3c(c2)OCO3)n1 [SB505124],IC50,[10]; cell-free assays where stated,129 nM
same,"inhibition of ALK1, ALK2, ALK3 or ALK6",[11],does not inhibit
same,inhibition of ALK7,[12],inhibits
Cc1cccc(-c2[nH]c(C(C)(C)C)nc2-c2ccc3nccnc3c2)n1 [SB525334],"effect on ALK4, times lower than on ALK5",[10],4 times
same,"activity on ALK2, ALK3 and ALK6",[13],no activity
NC(=O)c1ccc(-c2nc(-c3ccc4c(c3)OCO4)c(-c3ccccn3)[nH]2)cc1 [SB-431542],"times more inhibitory on ALK5 than on p38, MAPK and other kinases",[14],100 times
Nc1cccc(-c2cc3c(Oc4cccc(O)c4)ncnc3[nH]2)c1 [TWS119],IC50,[15],30 nM
O=C(NCc1ccccc1)c1csc(Nc2ccncn2)n1 [Thiazovivin],survival of human embryonic stem cells (hESCs) after single cell isolation,[16],promotes the survival
same,IC50,[17],500 nM
C[C@@H](N)[C@H]1CC[C@H](C(=O)Nc2ccncc2)CC1 [Y-27632],"times more inhibitory on ROCK1 than on other kinases including PKC, cAMP-dependent protein kinases, MLCK and PAK",[18],≥ 200 times
COc1ccc2[nH]c([S+]([O-])Cc3ncc(C)c(OC)c3C)nc2c1 (centres unmarked) [omeprazole],activity of P450 enzyme (CYP1A2) when induced,[19],enhanced
CHIR-98014,IC50,[20],0.65 nM
SD-208,times more selective on TGF-βRI than on TGF-βRII,[21],≥ 100 times
